Assay results as given in patent publication US11021493B2, “1,4-thiazine dioxide and 1,2,4-thiadiazine dioxide derivatives as beta-secretase inhibitors and methods of use” (AMGEN INC., priority 2016, dated 2021).
Where a name gives a salt, the structure may show the parent alone.

Key:
[1] = biological target: human recombinant BACE2 (Homo sapiens (Human), UniProt Q9Y5Z0); assay: In vitro enzymatic BACE2 FRET assay; format: biochemical; settings: read-out: BACE2 Enzyme IC50
[2] = biological target: Cathepsin D (CatD) (Homo sapiens (Human), UniProt P07339); assay: In vitro enzymatic Cathepsin D (CatD) FRET assay; format: biochemical; settings: read-out: Cat D Enzyme IC50
Sequence of Cathepsin D (CatD) (P07339 65-412, species assumed): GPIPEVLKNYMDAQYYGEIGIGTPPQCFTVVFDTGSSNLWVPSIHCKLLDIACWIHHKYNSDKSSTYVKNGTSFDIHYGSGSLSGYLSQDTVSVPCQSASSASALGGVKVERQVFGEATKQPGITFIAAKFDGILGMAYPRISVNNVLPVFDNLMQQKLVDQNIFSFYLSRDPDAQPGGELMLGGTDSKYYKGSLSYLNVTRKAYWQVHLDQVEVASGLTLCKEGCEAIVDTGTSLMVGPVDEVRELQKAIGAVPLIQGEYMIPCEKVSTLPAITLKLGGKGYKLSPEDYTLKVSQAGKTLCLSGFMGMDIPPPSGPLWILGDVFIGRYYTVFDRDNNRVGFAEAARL

[3] = biological target: T1, BACE1 (Homo sapiens (Human), UniProt P56817); assay: In vitro enzymatic BACE1 FRET assay; format: biochemical; settings: read-out: BACE1 Enzyme IC50
Target sequence in this assay (P56817 46-501): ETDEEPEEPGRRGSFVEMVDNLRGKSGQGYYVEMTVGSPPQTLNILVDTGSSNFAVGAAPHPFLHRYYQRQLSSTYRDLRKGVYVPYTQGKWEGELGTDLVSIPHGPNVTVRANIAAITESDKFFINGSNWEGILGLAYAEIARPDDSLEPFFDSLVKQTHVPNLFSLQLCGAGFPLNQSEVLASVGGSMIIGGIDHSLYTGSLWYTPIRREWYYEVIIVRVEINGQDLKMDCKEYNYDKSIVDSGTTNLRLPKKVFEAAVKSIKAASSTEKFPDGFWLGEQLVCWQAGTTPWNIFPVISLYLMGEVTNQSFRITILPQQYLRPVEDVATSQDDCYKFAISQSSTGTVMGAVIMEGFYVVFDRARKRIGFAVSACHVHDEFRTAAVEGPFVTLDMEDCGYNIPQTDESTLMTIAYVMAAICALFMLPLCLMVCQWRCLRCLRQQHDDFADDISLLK

[4] = biological target: T1, BACE1; assay: In vitro BACE1 cell-based assay (Aβ40 in conditioned medium of cells stably expressing APP, HTRF)
Target sequence in this assay (P56817 46-501, species assumed): as the sequence (P56817 46-501) above

[5] = Aβ40 in conditioned media after 24 h incubation

Sequence of human recombinant BACE2 (Q9Y5Z0 63-518): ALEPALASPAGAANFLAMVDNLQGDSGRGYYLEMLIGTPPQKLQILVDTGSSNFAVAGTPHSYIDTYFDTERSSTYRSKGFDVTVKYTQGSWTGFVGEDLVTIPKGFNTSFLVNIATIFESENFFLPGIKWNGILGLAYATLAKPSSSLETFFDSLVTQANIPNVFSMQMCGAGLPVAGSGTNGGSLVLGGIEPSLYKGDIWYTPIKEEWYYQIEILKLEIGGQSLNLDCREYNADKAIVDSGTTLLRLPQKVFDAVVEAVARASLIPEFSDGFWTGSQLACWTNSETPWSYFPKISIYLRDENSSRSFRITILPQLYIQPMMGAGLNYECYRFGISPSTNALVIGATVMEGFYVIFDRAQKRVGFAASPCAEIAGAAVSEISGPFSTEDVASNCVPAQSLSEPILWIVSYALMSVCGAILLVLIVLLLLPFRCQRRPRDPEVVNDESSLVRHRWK

| IC50 [1] [nM] | IC50 [2] [µM] | IC50 [4, 5] [nM] | SMILES | IC50 [3] [nM] | IC50 [4] [nM] |
| --- | --- | --- | --- | --- | --- |
| 621 | 51.7 | – | Cc1nnc(COc2cnc(/C(F)=C/c3cc(F)c(F)c([C@]4(C)CS(=O)(=O)N(C)C(N)=N4)c3)cn2)o1 [Example 233, (R,Z)-3-amino-5-(2,3-difluoro-5-(2-fluoro-2-(5-((5-methyl-1,3,4-oxadiazol-2-yl)methoxy)pyrazin-2-yl)vinyl)phenyl)-2,5-dimethyl-5,6-dihydro-2H-1,2,4-thiadiazine 1,1-dioxide] | – | – |
| 10 | 25.4 | – | CC#CCOc1cnc(/C(F)=C/c2ccc(F)c([C@]3(C)CS(=O)(=O)N(C)C(N)=N3)c2)cn1 [Example 168, (R,Z)-3-amino-5-(5-(2-(5-(but-2-yn-1-yloxy)pyrazin-2-yl)-2-fluorovinyl)-2-fluorophenyl)-2,5-dimethyl-5,6-dihydro-2H-1,2,4-thiadiazine 1,1-dioxide] | – | – |
| 103 | 25.4 | – | Cc1csc(COc2cnc(/C(F)=C/c3cc(F)c(F)c([C@]4(C)CS(=O)(=O)N(C)C(N)=N4)c3)cn2)n1 [Example 237, (R,Z)-3-amino-5-(2,3-difluoro-5-(2-fluoro-2-(5-((4-methylthiazol-2-yl)methoxy)pyrazin-2-yl)vinyl)phenyl)-2,5-dimethyl-5,6-dihydro-2H-1,2,4-thiadiazine 1,1-dioxide] | – | – |
| – | – | – | C#CCOc1cnc(/C(F)=C/c2ccc(F)c([C@]3(C)CS(=O)(=O)C(C)(C)C(N)=N3)c2)cn1 [Example 123, (R,Z)-5-amino-3-(2-fluoro-5-(2-fluoro-2-(5-(prop-2-yn-1-yloxy)pyrazin-2-yl)vinyl)phenyl)-3,6,6-trimethyl-3,6-dihydro-2H-1,4-thiazine 1,1-dioxide] | 1 | 3 |
| – | – | – | C=CCOc1cnc(/C(F)=C/c2cc(F)c(F)c([C@]3(C)CS(=O)(=O)N(C)C(N)=N3)c2)cn1 [Example 227, (R,Z)-5-(5-(2-(5-(allyloxy)pyrazin-2-yl)-2-fluorovinyl)-2,3-difluorophenyl)-3-amino-2,5-dimethyl-5,6-dihydro-2H-1,2,4-thiadiazine 1,1-dioxide] | 46 | 427 |
| 203 | 177 | 241 | CC1(C)C(N)=N[C@](C)(c2cc(/C=C(\F)c3cnc(O)cn3)ccc2F)CS1(=O)=O [Example 140, (R,Z)-5-amino-3-(2-fluoro-5-(2-fluoro-2-(5-hydroxypyrazin-2-yl)vinyl)phenyl)-3,6,6-trimethyl-3,6-dihydro-2H-1,4-thiazine 1,1-dioxide] | – | – |
| 210 | 22.3 | – | Cc1cc(COc2cnc(/C(F)=C/c3cc(F)c(F)c([C@]4(C)CS(=O)(=O)N(C)C(N)=N4)c3)cn2)no1 [Example 223, (R,Z)-3-amino-5-(2,3-difluoro-5-(2-fluoro-2-(5-((5-methylisoxazol-3-yl)methoxy)pyrazin-2-yl)vinyl)phenyl)-2,5-dimethyl-5,6-dihydro-2H-1,2,4-thiadiazine 1,1-dioxide] | – | – |
| 113 | 22 | 1400 | CN1C(N)=N[C@](C)(c2cc(/C=C(\F)c3cnc(OCC4CCC4)cn3)ccc2F)CS1(=O)=O [Example 174, (R,Z)-3-amino-5-(5-(2-(5-(cyclobutylmethoxy)pyrazin-2-yl)-2-fluorovinyl)-2-fluorophenyl)-2,5-dimethyl-5,6-dihydro-2H-1,2,4-thiadiazine 1,1-dioxide] | – | – |
| 66 | 32.2 | – | CN1C(N)=N[C@](C)(c2cc(/C=C(\F)c3cnc(OCc4cscn4)cn3)cc(F)c2F)CS1(=O)=O [Example 220, (R,Z)-3-amino-5-(2,3-difluoro-5-(2-fluoro-2-(5-(thiazol-4-ylmethoxy)pyrazin-2-yl)vinyl)phenyl)-2,5-dimethyl-5,6-dihydro-2H-1,2,4-thiadiazine 1,1-dioxide] | – | – |
| 398 | 90.3 | – | CCOC(=O)COc1cnc(/C(F)=C/c2cc(F)c(F)c([C@]3(C)CS(=O)(=O)N(C)C(N)=N3)c2)cn1 [Example 243, (R,Z)-ethyl 2-((5-(2-(3-(3-amino-2,5-dimethyl-1,1-dioxido-5,6-dihydro-2H-1,2,4-thiadiazin-5-yl)-4,5-difluorophenyl)-1-fluorovinyl)pyrazin-2-yl)oxy)acetate] | – | – |
| 1820 | > 400 | – | CN1C(N)=N[C@](C)(c2cc(/C=C(\F)c3cnc(OCc4nccn4C)cn3)cc(F)c2F)CS1(=O)=O [Example 249, (R,Z)-3-amino-5-(2,3-difluoro-5-(2-fluoro-2-(5-((1-methyl-1H-imidazol-2-yl)methoxy)pyrazin-2-yl)vinyl)phenyl)-2,5-dimethyl-5,6-dihydro-2H-1,2,4-thiadiazine 1,1-dioxide] | – | – |
| 290 | 32.5 | 11 | C#C[C@H](C)Oc1cnc(/C(F)=C/c2cc(F)c(F)c([C@]3(C)CS(=O)(=O)N(C)C(N)=N3)c2)cn1 [Example 167, (R)-3-amino-5-(5-((Z)-2-(5-((S)-but-3-yn-2-yloxy)pyrazin-2-yl)-2-fluorovinyl)-2,3-difluorophenyl)-2,5-dimethyl-5,6-dihydro-2H-1,2,4-thiadiazine 1,1-dioxide hydrochloride] | – | – |
| 47 | 18.2 | – | CC#CCOc1cnc(/C(F)=C/c2cc(F)c(F)c([C@]3(C)CS(=O)(=O)N(C)C(N)=N3)c2)cn1 [Example 165, (R,Z)-3-amino-5-(5-(2-(5-(but-2-yn-1-yloxy)pyrazin-2-yl)-2-fluorovinyl)-2,3-difluorophenyl)-2,5-dimethyl-5,6-dihydro-2H-1,2,4-thiadiazine 1,1-dioxide] | – | – |
| 94 | 46.8 | – | Cc1nc(COc2cnc(/C(F)=C/c3cc(F)c(F)c([C@]4(C)CS(=O)(=O)N(C)C(N)=N4)c3)cn2)c(C)o1 [Example 238, (R,Z)-3-amino-5-(5-(2-(5-((2,5-dimethyloxazol-4-yl)methoxy)pyrazin-2-yl)-2-fluorovinyl)-2,3-difluorophenyl)-2,5-dimethyl-5,6-dihydro-2H-1,2,4-thiadiazine 1,1-dioxide] | – | – |
| 266 | 39.5 | – | CN1C(N)=N[C@](C)(c2cc(/C=C(\F)c3cnc(OCc4ncccn4)cn3)cc(F)c2F)CS1(=O)=O [Example 228, (R,Z)-3-amino-5-(2,3-difluoro-5-(2-fluoro-2-(5-(pyrimidin-2-ylmethoxy)pyrazin-2-yl)vinyl)phenyl)-2,5-dimethyl-5,6-dihydro-2H-1,2,4-thiadiazine 1,1-dioxide] | – | – |
| 421 | 74.8 | – | Cc1noc(COc2cnc(/C(F)=C/c3cc(F)c(F)c([C@]4(C)CS(=O)(=O)N(C)C(N)=N4)c3)cn2)n1 [Example 224, (R,Z)-3-amino-5-(2,3-difluoro-5-(2-fluoro-2-(5-((3-methyl-1,2,4-oxadiazol-5-yl)methoxy)pyrazin-2-yl)vinyl)phenyl)-2,5-dimethyl-5,6-dihydro-2H-1,2,4-thiadiazine 1,1-dioxide] | – | – |
| 257 | 68.2 | – | Cc1nc(COc2cnc(/C(F)=C/c3cc(F)c(F)c([C@]4(C)CS(=O)(=O)N(C)C(N)=N4)c3)cn2)no1 [Example 229, (R,Z)-3-amino-5-(2,3-difluoro-5-(2-fluoro-2-(5-((5-methyl-1,2,4-oxadiazol-3-yl)methoxy)pyrazin-2-yl)vinyl)phenyl)-2,5-dimethyl-5,6-dihydro-2H-1,2,4-thiadiazine 1,1-dioxide] | – | – |
| 139 | 74.7 | – | CC1(C)C(N)=N[C@](C)(c2cc(/C=C(\F)c3cnc(OCC4CC4)cn3)ccc2F)CS1(=O)=O [Example 206, (R,Z)-5-amino-3-(5-(2-(5-(cyclopropylmethoxy)pyrazin-2-yl)-2-fluorovinyl)-2-fluorophenyl)-3,6,6-trimethyl-3,6-dihydro-2H-1,4-thiazine 1,1-dioxide] | – | – |
| 87 | 178 | – | CN1C(N)=N[C@](C)(c2cc(/C=C(\F)c3cnc(C#N)cn3)ccc2F)C(C)(C)S1(=O)=O [Example 181, (R,Z)-5-(2-(3-(3-amino-2,5,6,6-tetramethyl-1,1-dioxido-5,6-dihydro-2H-1,2,4-thiadiazin-5-yl)-4-fluorophenyl)-1-fluorovinyl)pyrazine-2-carbonitrile] | – | – |
| 84 | 69.8 | – | CN1C(N)=N[C@](C)(c2cc(/C=C(\F)c3cnc(OCc4cocn4)cn3)cc(F)c2F)CS1(=O)=O [Example 225, (R,Z)-3-amino-5-(2,3-difluoro-5-(2-fluoro-2-(5-(oxazol-4-ylmethoxy)pyrazin-2-yl)vinyl)phenyl)-2,5-dimethyl-5,6-dihydro-2H-1,2,4-thiadiazine 1,1-dioxide] | – | – |
| 111 | 34.9 | – | Cc1cnc(COc2cnc(/C(F)=C/c3cc(F)c(F)c([C@]4(C)CS(=O)(=O)N(C)C(N)=N4)c3)cn2)o1 [Example 246, (R,Z)-3-amino-5-(2,3-difluoro-5-(2-fluoro-2-(5-((5-methyloxazol-2-yl)methoxy)pyrazin-2-yl)vinyl)phenyl)-2,5-dimethyl-5,6-dihydro-2H-1,2,4-thiadiazine 1,1-dioxide] | – | – |
| 3 | 143 | – | CC1(C)C(N)=N[C@](C)(c2cc(/C=C(\F)c3cnc(Cl)cn3)ccc2F)CS1(=O)=O [Example 159, (R,Z)-5-amino-3-(5-(2-(5-chloropyrazin-2-yl)-2-fluorovinyl)-2-fluorophenyl)-3,6,6-trimethyl-3,6-dihydro-2H-1,4-thiazine 1,1-dioxide] | – | – |

| SMILES | IC50 [1] [nM] | IC50 [2] [µM] | IC50 [4, 5] [nM] | IC50 [3] [nM] | IC50 [4] [nM] |
| --- | --- | --- | --- | --- | --- |
| C[C@]1(c2cc(/C=C(/F)C3CCCO3)ccc2F)N=C(N)[C@@]2(CF)CC[C@@H]1S2(=O)=O (stereo partly drawn) [Example 278, (1R,4R,5S)-2-amino-4-(2-fluoro-5-((E)-2-fluoro-2-(tetrahydrofuran-2-yl)vinyl)phenyl)-1-(fluoromethyl)-4-methyl-8-thia-3-azabicyclo[3.2.1]oct-2-ene 8,8-dioxide] | – | – | 1980 | 1110 | – |
| CN1C(N)=N[C@](C)(c2cc(/C=C(\F)c3cc4nccnc4cn3)ccc2F)CS1(=O)=O [Example 250, (5R)-5-(2-fluoro-5-((Z)-2-fluoro-2-(pyrido[3,4-b]pyrazin-7-yl)ethenyl)phenyl)-2,5-dimethyl-5,6-dihydro-2H-1,2,4-thiadiazin-3-amine 1,1-dioxide] | – | > 400 | – | – | – |
